{"source": "patent US9783509B2", "about": "“Six-membered C-N-linked aryl sulfide derivatives and aryl sulfoxide derivatives as pest conrol agents” (BAYER CROPSCIENCE AKTIENGESELLSCHAFT, priority 2013, dated 2017)", "key": {"[1]": {"system": "southern root-knot nematode (Meloidogyne incognita)", "assay": "Meloidogyne incognita test (sand, lettuce, acetone solvent, 14 days)", "format": "in vivo", "settings": "application rate 20 ppm, after 14 days", "protocol": "Meloidogyne incognita Test\nSolvent: 125.0 parts by weight of acetone\nTo produce an appropriate active ingredient formulation, 1 part by weight of active ingredient is mixed with the stated amount of solvent and the concentrate is diluted with water to the desired concentration.\nVessels are filled with sand, active ingredient solution, an egg/larvae suspension of the southern root-knot nematode (Meloidogyne incognita) and lettuce seeds. The lettuce seeds germinate and the plants develop. The galls develop on the roots\nAfter 14 days, the nematicidal efficacy in % is determined by the formation of galls. 100% means that no galls were found; 0% means that the number of galls on the treated plants corresponds to the untreated control."}, "[2]": {"system": "greenhouse red spider mite (Tetranychus urticae)", "assay": "Tetranychus urticae spray test, OP-resistant (bean leaf discs)", "format": "in vivo", "settings": "application rate 500 g/ha, after 6 days; for pest or weed control at 500 g/ha: Tetranychus urticae, foliar, 144 h, read-out: efficacy (spider mites killed)", "protocol": "Tetranychus urticae—Spray Test, OP-Resistant\nSolvent: 78.0 parts by weight of acetone • • 1.5 parts by weight of dimethylformamide\nEmulsifier: alkylaryl polyglycol ether\nTo produce an appropriate active ingredient formulation, 1 part by weight of active ingredient is dissolved using the specified parts by weight of solvent and made up with water containing an emulsifier concentration of 1000 ppm until the desired concentration is attained. To produce further test concentrations, the preparation is diluted with emulsifier-containing water.\nDiscs of bean leaves (Phaseolus vulgaris) infested by all stages of the greenhouse red spider mite (Tetranychus urticae) are sprayed with an active ingredient formulation of the desired concentration.\nAfter 6 days, the efficacy in % is determined. 100% means that all the spider mites have been killed; 0% means that none of the spider mites have been killed."}, "[3]": {"assay": "log P by reversed-phase HPLC analogously to OECD Guideline 117", "format": "physicochemical", "settings": "for chromatographic logP: reversed-phase C18 HPLC column", "protocol": "The log P values were determined analogously to OECD Guideline 117 (EC Directive 92/69/EEC) by HPLC (high-performance liquid chromatography) using reversed-phase columns (C 18), by the following methods:\n[a] LC-MS determination in the acidic range is effected at pH 2.7 with 0.1% aqueous formic acid and acetonitrile (containing 0.1% formic acid) as eluents with a linear gradient from 10% acetonitrile to 95% acetonitrile; or with 0.025% aqueous trifluoroacetic acid and acetonitrile (containing 0.025% trifluoroacetic acid) as eluents with a linear gradient from 50% acetonitrile to 80% acetonitrile.\n[b] LC-MS determination in the neutral range is effected at pH 7.8 with 0.001 molar aqueous ammonium hydrogencarbonate solution and acetonitrile as eluents; linear gradient from 10% acetonitrile to 95% acetonitrile.\nCalibration is effected with solutions of a homologous series of unbranched alkan-2-ones (having 3 to 16 carbon atoms) with known log P values (log P values determined on the basis of the retention times by linear interpolation between two successive alkanones)."}, "[4]": {"settings": "[a] acidic range, pH 2.7, formic acid (or trifluoroacetic acid)/acetonitrile"}, "[5]": {"settings": "[b] neutral range, pH 7.8, ammonium hydrogencarbonate/acetonitrile"}, "[6]": {"settings": "pH 2.7, running text, [a] acidic range, pH 2.7, read-out: log P[a]"}, "[7]": {"settings": "pH 2.7, table column, [a] acidic range, pH 2.7, formic acid (or trifluoroacetic acid)/acetonitrile, read-out: LogP[a]"}, "[8]": {"settings": "pH 7.8, running text, [b] neutral range, pH 7.8, read-out: log P[b]"}, "[9]": {"settings": "pH 7.8, table column, [b] neutral range, pH 7.8, ammonium hydrogencarbonate/acetonitrile, read-out: LogP[b]"}}, "note": "Where two headings read alike, the source gives them in different places."}
{"smiles": "Cc1cc(C)c(-n2ccc(=O)n(C)c2=O)cc1SCC(F)(F)F", "note": "[compound 92]", "values": [{"measurement": "nematicidal efficacy (formation of galls)", "setting": "[1]", "result": 90, "unit": "%"}, {"measurement": "efficacy (spider mites killed)", "setting": "[2]", "result": 90, "unit": "%"}, {"measurement": "LogP[a]", "setting": "[3]; [4]", "result": 2.66}, {"measurement": "LogP[b]", "setting": "[3]; [5]", "result": 2.72}]}
{"smiles": "Cc1cc(F)c(-n2ccc(=O)n(C(C)C)c2=O)cc1[S+]([O-])CC(F)(F)F", "note": "(racemic) [compound 63]", "values": [{"measurement": "nematicidal efficacy (formation of galls)", "setting": "[1]", "result": 100, "unit": "%"}, {"measurement": "efficacy (spider mites killed)", "setting": "[2]", "result": 90, "unit": "%"}, {"measurement": "LogP[a]", "setting": "[3]; [4]", "result": 2.22}, {"measurement": "LogP[b]", "setting": "[3]; [5]", "result": 2.31}]}
{"smiles": "Cc1cc(F)c(-n2ccc(=O)n(CC#N)c2=O)cc1[S+]([O-])CC(F)(F)F", "note": "(racemic) [compound 61]", "values": [{"measurement": "nematicidal efficacy (formation of galls)", "setting": "[1]", "result": 100, "unit": "%"}, {"measurement": "efficacy (spider mites killed)", "setting": "[2]", "result": 90, "unit": "%"}, {"measurement": "LogP[a]", "setting": "[3]; [4]", "result": 1.72}, {"measurement": "LogP[b]", "setting": "[3]; [5]", "result": 1.73}]}
{"smiles": "O=c1cnn(-c2cc(SCC(F)(F)F)c(Cl)cc2Cl)c(=O)n1CC(F)(F)F", "note": "[compound 12]", "values": [{"measurement": "nematicidal efficacy (formation of galls)", "setting": "[1]", "result": 90, "unit": "%"}, {"measurement": "efficacy (spider mites killed)", "setting": "[2]", "result": 90, "unit": "%"}, {"measurement": "LogP[a]", "setting": "[3]; [4]", "result": 3.93}]}
{"smiles": "Cc1cc(C)c([S+]([O-])CC(F)(F)F)cc1-n1ccc(=O)n(CC(F)(F)F)c1=O", "note": "(stereo not drawn) [compound 95]", "values": [{"measurement": "nematicidal efficacy (formation of galls)", "setting": "[1]", "result": 100, "unit": "%"}, {"measurement": "efficacy (spider mites killed)", "setting": "[2]", "result": 100, "unit": "%"}, {"measurement": "LogP[a]", "setting": "[3]; [4]", "result": 2.40}, {"measurement": "LogP[b]", "setting": "[3]; [5]", "result": 2.44}]}
{"smiles": "Cc1ccc(-n2ccc(=O)n(CC(F)(F)F)c2=O)cc1[S+]([O-])CC(F)(F)F", "note": "(stereo not drawn) [compound 90]", "values": [{"measurement": "nematicidal efficacy (formation of galls)", "setting": "[1]", "result": 100, "unit": "%"}, {"measurement": "efficacy (spider mites killed)", "setting": "[2]", "result": 100, "unit": "%"}, {"measurement": "LogP[a]", "setting": "[3]; [4]", "result": 2.18}, {"measurement": "LogP[b]", "setting": "[3]; [5]", "result": 2.21}]}
{"smiles": "O=c1cnn(-c2cc(SCC(F)(F)F)c(Cl)cc2Cl)c(=O)[nH]1", "note": "[compound 8]", "values": [{"measurement": "nematicidal efficacy (formation of galls)", "setting": "[1]", "result": 90, "unit": "%"}, {"measurement": "LogP[a]", "setting": "[3]; [4]", "result": 2.72}, {"measurement": "LogP[b]", "setting": "[3]; [5]", "result": 1.4}]}
{"smiles": "Cc1ccc(-n2ccc(=O)n(C)c2=O)cc1[S+]([O-])CC(F)(F)F", "note": "(stereo not drawn) [Ex. No. 57, 3-Methyl-1-{4-methyl-3-[(2,2,2-trifluoroethyl)sulphinyl]phenyl}pyrimidine-2,4(1H,3H)-dione]", "values": [{"measurement": "pest or weed control at 20 ppm", "setting": "[1]; Meloidogyne incognita, 336 h, read-out: nematicidal efficacy (formation of galls)", "result": 90, "unit": "%"}, {"measurement": "chromatographic logP", "setting": "[3]; [6]", "result": 1.5}, {"measurement": "chromatographic logP", "setting": "[3]; [7]", "result": 1.49}, {"measurement": "chromatographic logP", "setting": "[3]; [8]", "result": 1.49}, {"measurement": "chromatographic logP", "setting": "[3]; [9]", "result": 1.5}]}
{"smiles": "Cc1cc(F)c(-n2ccc(=O)n(CC(C)C)c2=O)cc1[S+]([O-])CC(F)(F)F", "note": "(stereo not drawn) [compound 69]", "values": [{"measurement": "nematicidal efficacy (formation of galls)", "setting": "[1]", "result": 100, "unit": "%"}, {"measurement": "LogP[a]", "setting": "[3]; [4]", "result": 2.48}, {"measurement": "LogP[b]", "setting": "[3]; [5]", "result": 2.55}]}
{"smiles": "O=c1cnn(-c2cc([S+]([O-])CC(F)(F)F)c(Cl)cc2Cl)c(=O)[nH]1", "note": "(racemic) [compound 15]", "values": [{"measurement": "nematicidal efficacy (formation of galls)", "setting": "[1]", "result": 90, "unit": "%"}, {"measurement": "LogP[a]", "setting": "[3]; [4]", "result": 2.02}, {"measurement": "LogP[b]", "setting": "[3]; [5]", "result": 1.1}]}
{"smiles": "Cc1cc(F)c(-n2c(C)c(C#N)c(=O)[nH]c2=O)cc1[S+]([O-])CC(F)(F)F", "note": "(stereo not drawn) [Ex. No. 16, 1-{2-Fluoro-4-methyl-5-[(2,2,2-trifluoroethyl)sulphinyl]phenyl}-6-methyl-2,4-dioxo-1,2,3,4-tetrahydropyrimidine-5-carbonitrile]", "values": [{"measurement": "pest or weed control at 500 g/ha", "setting": "[2]", "result": 90, "unit": "%"}, {"measurement": "chromatographic logP", "setting": "[3]; [7]", "result": 1.58}, {"measurement": "chromatographic logP", "setting": "[3]; [9]", "result": 0.88}]}
{"smiles": "Cc1cc(F)c(-n2ccc(=O)[nH]c2=O)cc1SCC(F)(F)F", "note": "[Ex. No. 55, 1-{2-Fluoro-4-methyl-5-[(2,2,2-trifluoroethyl)sulphanyl]phenyl}pyrimidine-2,4(1H,3H)-dione]", "values": [{"measurement": "pest or weed control at 500 g/ha", "setting": "[2]", "result": 100, "unit": "%"}, {"measurement": "chromatographic logP", "setting": "[3]; [6]", "result": 2.13}, {"measurement": "chromatographic logP", "setting": "[3]; [7]", "result": 2.06}, {"measurement": "chromatographic logP", "setting": "[3]; [8]", "result": 2.06}, {"measurement": "chromatographic logP", "setting": "[3]; [9]", "result": 2.13}]}
{"smiles": "CCn1c(=O)cnn(-c2cc(SCC(F)(F)F)c(C)cc2C)c1=O", "note": "[compound 33]", "values": [{"measurement": "efficacy (spider mites killed)", "setting": "[2]", "result": 100, "unit": "%"}, {"measurement": "LogP[a]", "setting": "[3]; [4]", "result": 3.45}, {"measurement": "LogP[b]", "setting": "[3]; [5]", "result": 3.38}]}
{"smiles": "Cc1ccc(-n2ncc(=O)n(C)c2=O)cc1SCC(F)(F)F", "note": "[compound 23]", "values": [{"measurement": "efficacy (spider mites killed)", "setting": "[2]", "result": 100, "unit": "%"}, {"measurement": "LogP[a]", "setting": "[3]; [4]", "result": 2.9}, {"measurement": "LogP[b]", "setting": "[3]; [5]", "result": 2.83}]}
{"smiles": "Cc1cc(C)c(-n2ncc(=O)n(CC(C)C)c2=O)cc1SCC(F)(F)F", "note": "[compound 41]", "values": [{"measurement": "efficacy (spider mites killed)", "setting": "[2]", "result": 90, "unit": "%"}, {"measurement": "LogP[a]", "setting": "[3]; [4]", "result": 4.18}, {"measurement": "LogP[b]", "setting": "[3]; [5]", "result": 4.1}]}
{"smiles": "Cc1cc(C)c(-n2ncc(=O)n(CC#N)c2=O)cc1SCC(F)(F)F", "note": "[compound 40]", "values": [{"measurement": "efficacy (spider mites killed)", "setting": "[2]", "result": 100, "unit": "%"}, {"measurement": "LogP[a]", "setting": "[3]; [4]", "result": 3.1}, {"measurement": "LogP[b]", "setting": "[3]; [5]", "result": 3.05}]}
